Assay results taken from US9624254B2, “Hydroxysafflor yellow pharmaceutical salts” (ZHEJIANG YONGNING PHARMACEUTICAL CO LTD, priority 2013, dated 2017).
Several values for one entry are separate records, joined by “and”; a condition that tells them apart may be missing. Identical values can stand only once. Like-named read-outs stand apart in the source and are kept apart here.

Assays:
[1] = system: acute myocardial infarction among rats; experiment: Rat acute myocardial infarction model (coronary ligature): arrhythmia ranking, infarcted area, myocardial enzymes; assay type: in vivo
Procedure: Test method • 1. Preparation of rat acute myocardial infarction model: Intraperitoneal anesthesia was performed with 3% sodium pentobarbital, 45 mg/kg. Right femoral artery and vein catheter were inserted for blood pressure monitoring and intravenous administration, respectively. Artificial mechanical ventilation was given through tracheal intubation at a rate of 60 times/min, and with a ventilation volume of about 10 ml/kg. Electrocardiogram (ECG) was recorded by placing needle electrode in limbs. A longitudinal skin incision was made approximately 0.5 cm to left sternal border, followed by blunt dissection of the subcutaneous tissue. The pectoralis major, pectoralis minor, and the intercostal muscle were dissected, ligated and cut with scissors successively. The chest was open from the fourth intercostal space along the left sternal border where apical beat is most significant. Cut the pericardium open with scissors, and clamp the pericardium to bilateral chest wall with hemostatic forceps, to form a pericardial bed and expose vessels on the surface of the left ventricle. 6-0 silk suture was threaded through superficial layer of myocardium (i.e. the anterior descending coronary artery) about 2 mm under the left auricle. […] Arrhythmia ranking: The severity of arrhythmia which occurred within 30 min after coronary ligature was scored. • 3. Myocardial enzyme test: At the end of test, 2 ml of venous blood was taken, and centrifuged under 4° C. and 4000/min for 5 min. The supernatant was taken for myocardial enzyme test. Test items: LDH, AKP, CK. • 4. Measurement of myocardial infarcted area: 4 h after coronary ligature, puncture was performed to the anterior wall of the left ventricle, and carbon ink was injected. Then the animal was sacrificed, and the heart was removed and cleaned with normal saline. Blood and non-myocardial tissue such as vessel and fat were removed. Moisture was dried with absorbent paper. Then the heart was weighed. The heart was cut into sections of about 2 mm from cardiac apex to the base of heart parallel. The perfusion area (perfused with ink) and area at high risk of ischemia (without ink perfusion). […] The nonobstructive heart muscle stained was cut off with scissors, and the non-stained infarcted heart muscle was weighed, to calculate percentage of infarcted heart muscle in the area of heart muscle at risk by weight (weight of infarction area/weight of area at risk*100%). Statistical Analysis:
All the test data was expressed as mean±standard deviation, statistical test was done with analysis of variance (ANOVA), and the difference was considered significant if P<0.05.

[2] = system: Willis arteries from beagles (cerebral vascular ring); set-up: species or system dog
Source text: (§1) 1. Selectivity of isolated heart and cerebral vessel from dogs: During this study, Willis arteries and coronary ring from beagles were mounted on ex vivo vascular measuring device. Adjust the tension sensor, and add 10-6 mol/L phenylephrine into the liquid in bath cup, so as to maintain vascular tension. […] Calculate vasoconstriction or vasodilation change value.

[3] = system: coronary ring from beagles (cardiac vascular ring); set-up: species or system dog
Source text: as §1

[4] = system: acute cerebral ischemia model (MCAO); assay type: in vivo, rat
[5] = system: permeability of cerebral vessel; assay type: in vivo, rat
Procedure: 3. Effect on vasopermeability in rats: Rats were injected intravenously, once per day, for 7 days. After the last dose, rats were anesthetized, injected intravenously with Evans blue 50 mg/kg. After 5 minutes, bilateral common carotid arteries were ligated. The animals were sacrificed by decapitation after 3 hours. The brain was removed, weighed and immersed in formamide solution. It was placed in an incubator at 45° C. for 72 h. During this period, Evans blue in the cerebral vessel could be leached out into formamide solution. Testing the amount of Evans blue leached out into the formamide solution with spectrophotometer could indicate permeability of cerebral vessel.

[6] = system: cerebral blood flow; assay type: in vivo, dog
Source text: 4. Effect on cerebral blood flow of dog: Beagles were used as the study animal. After the dog was anesthetized with sodium pentobarbital, external jugular vein, internal jugular vein and vertebral artery were isolated surgically. The external jugular vein was ligated. Flow probes were placed in internal jugular vein and vertebral artery. Two times of the total blood flow recorded by both probes represented blood supply of the whole brain. At the end of the study, the brain was removed and weighed to calculate blood flow per 100 g of brain tissue.

[7] = system: acute hypoxia; experiment: Acute cerebral anoxia, survival in a closed vessel; assay type: in vivo, mouse; settings: Kunming mice
Procedure: 5. Effect on acute cerebral anoxia: A study was carried out using Kunming mice […]. The animals were kept in an environment lacking oxygen. The survival duration was recorded to examine whether resistance to acute hypoxia was increased after animals given the medicine. […] Animals were kept in the container until respiration ceased.

[8] = system: platelet adhered to the silk; assay type: in vivo, rat
Procedure: (§2) 6. Anti-platelet aggregation: The study included two stages, instrument testing and in vivo test. […] 4 ml of blood was taken from heart 2 hours after the last dose. The blood was centrifuged under a low speed to obtain platelet-rich […]; and centrifuged under a high speed to obtain […] lacking platelet. Adenosine diphosphate (ADP) and platelet-activating factor (PAF) were chosen as the platelet aggregation inducing agent. And platelet aggregometer was used for testing. […] 2) In vivo method: An arteriovenous short was created with latex tubing in rats. There was surgical silk mounted in the latex tubing. Using characteristics of platelet adhesion, the short was opened to allow blood to flow trans-arteriovenously through the latex tubing. And then silk was removed and weighed. The weight of platelet adhered to the silk was calculated by subtracting the dry weight.

[9] = system: blood viscosity; assay type: in vivo; settings: rabbit
Procedure: 7. Effect on blood viscosity: Rabbit was treated intravenously, once per day, for 5 days. 2 hours after the last dose, blood was taken from heart and anticoagulated, and tested with blood rheometer directly.

[10] = assay type: physicochemical; settings: for Content: calculated as hydroxysafflor yellow A
[11] = system: platelet aggregation induced by ADP; experiment: Anti-platelet aggregation, instrument testing (platelet aggregometer), ADP; assay type: in vivo; settings: rabbit, intravenous once per day for 5 days, blood 2 hours after last dose, three doses
Procedure: as §2

[12] = system: platelet aggregation induced by PAF; experiment: Anti-platelet aggregation, instrument testing (platelet aggregometer), PAF; assay type: in vivo; settings: rabbit, intravenous once per day for 5 days, blood 2 hours after last dose, three doses
Procedure: as §2

[13] = serum, rats, 40 mg/kg intravenously, end of test
[14] = 10-6 mol/L phenylephrine tension, 10 mg/ml added every 5 min, 4-5 times
[15] = beagles, intravenous, medium and high dose

O=C(/C=C/c1ccc(O)cc1)C1=C(O)C(O)(C2OC(CO)C(O)C(O)C2O)C([O][Ca][O]C2=C(C3OC(CO)C(O)C(O)C3O)C(=O)C(C(=O)/C=C/c3ccc(O)cc3)=C(O)C2(O)C2OC(CO)C(O)C(O)C2O)=C(C2OC(CO)C(O)C(O)C2O)C1=O (centres unmarked) [Calcium hydroxysafflor yellow A]
Extent of myocardial infarction compared to hydroxysafflor yellow for injection (in words) ([1]; rat, in vivo): better efficacy in terms of reducing the extent of myocardial infarction
Effect on serum LDH and CK (in words) ([1]; rat, in vivo, iv): more significant efficacy
Effect on severity of arrhythmia (in words) ([1]; rat, in vivo, iv): more effective
AKP (IU/L) ([1]; rat, in vivo, iv, 40 mg/kg): 152 ± 24 IU/L
Arrhythmia ranking ([1]; rat, in vivo, iv, 40 mg/kg): 1.46 ± 0.3
CK (IU/L) ([1]; rat, in vivo, iv, 40 mg/kg): 2139 ± 594 IU/L
Infarction area ([1]; rat, in vivo, iv, 40 mg/kg): 0.11 ± 0.04 g
Infarction rate (%) ([1]; rat, in vivo, iv, 40 mg/kg): 29 ± 6 %
LDH (IU/L) ([1]; rat, in vivo, iv, 40 mg/kg): 463 ± 65 IU/L
Dilation on cerebral vascular ring [2]: 69.7%
Dilation on cardiac vascular ring [3]: 37.1%
Area of cerebral infarction ([4]; rat, in vivo, iv): 41.3% and 25.7% and 21.6%
Evans blue leached out from cerebral vessel (in words) ([5]; rat, in vivo, iv): very significant effect of reducing Evans blue being leached out from cerebral vessel
Cerebral blood flow (in words) ([6]; dog, in vivo, iv): significantly increase blood flow
Time for which blood flow was maintained ([6]; dog, in vivo, iv): about 15 min
Survival duration ([7]; high dose): 37 min
Survival duration ([7]; low dose): 35 min
Survival duration ([7]; medium dose): 38 min
Weight of platelet adhered on the silk ([8]; rat, in vivo): 13.9 ± 1.54 mg and 10.26 ± 1.15 mg and 8.73 ± 1.79 mg
Blood viscosity effect compared with nimodipine positive control (in words) ([9]; in vivo): superior to the positive control group
Blood viscosity, low shear, medium shear and high shear (in words) ([9]; in vivo, iv): decreased as dose increased
Total purity ([10]; Accelerated 0 month): 1.2%
Total purity ([10]; Accelerated 1 month): 1.4%
Content ([10]; Accelerated 1 month): 95.6%
Total purity ([10]; Accelerated 2 months): 1.9%
Content ([10]; Accelerated 2 months): 95.1%
Total purity ([10]; Accelerated 3 months): 2.6%
Content ([10]; Accelerated 3 months): 94.5%

O=C(/C=C/c1ccc(O)cc1)C1=C(O)C(O)(C2OC(CO)C(O)C(O)C2O)C([O][Mg][O]C2=C(C3OC(CO)C(O)C(O)C3O)C(=O)C(C(=O)/C=C/c3ccc(O)cc3)=C(O)C2(O)C2OC(CO)C(O)C(O)C2O)=C(C2OC(CO)C(O)C(O)C2O)C1=O (centres unmarked) [Magnesium hydroxysafflor yellow A]
Total purity ([10]; Accelerated 0 month): 1.0%
Content ([10]; Accelerated 0 month): 97.4%
Total purity ([10]; Accelerated 1 month): 1.3%
Content ([10]; Accelerated 1 month): 97.0%
Total purity ([10]; Accelerated 2 months): 1.8%
Content ([10]; Accelerated 2 months): 96.4%
Total purity ([10]; Accelerated 3 months): 2.4%
Content ([10]; Accelerated 3 months): 95.8%

Potassium hydroxysafflor yellow A
Extent of myocardial infarction compared to hydroxysafflor yellow for injection (in words) ([1]; rats): better efficacy in terms of reducing the extent of myocardial infarction
Infarction area ([1]; rats, 40 mg/kg intravenously, 4 h after coronary ligature, NBT staining, mean±SD): 0.10 ± 0.02 g
Infarction rate (%) ([1]; rats, 40 mg/kg intravenously, weight of infarction area/weight of area at risk*100%): 26 ± 9 %
Arrhythmia ranking ([1]; rats, 40 mg/kg intravenously, within 30 min after coronary ligature, mean±SD, n=8): 1.38 ± 0.5
Effect on serum LDH and CK (in words) ([1]; rats, given intravenously): more significant efficacy
Effect on severity of arrhythmia (in words) ([1]; rats, given intravenously, after coronary ligature): more effective
AKP (IU/L) [1, 13]: 144 ± 19 IU/L
CK (IU/L) [1, 13]: 2203 ± 530 IU/L
LDH (IU/L) [1, 13]: 451 ± 78 IU/L
Dilation on cerebral vascular ring [2, 14]: 73.1%
Dilation on cardiac vascular ring [3, 14]: 31.6%
Area of cerebral infarction ([4]; rat, in vivo, iv): 38.2% and 27.6% and 21.9%
Evans blue leached out from cerebral vessel (in words) ([5]; rats, intravenous once per day for 7 days, high and medium dose groups): very significant effect of reducing Evans blue being leached out from cerebral vessel
Cerebral blood flow (in words) [6, 15]: significantly increase blood flow
Time for which blood flow was maintained [6, 15]: about 15 min
Survival duration ([7]; high dose): 36 min
Survival duration ([7]; low dose): 36 min
Survival duration ([7]; medium dose): 37 min
Effect against platelet aggregation induced by ADP (in words) [11]: very good anti-platelet aggregation effect
Effect against platelet aggregation induced by PAF (in words) [12]: very good anti-platelet aggregation effect
Weight of platelet adhered on the silk ([8]; rats, arteriovenous short, high dose): 8.91 ± 1.34 mg
Weight of platelet adhered on the silk ([8]; rats, arteriovenous short, low dose): 13.6 ± 1.89 mg
Weight of platelet adhered on the silk ([8]; rats, arteriovenous short, medium dose): 9.90 ± 1.53 mg
Blood viscosity effect compared with nimodipine positive control (in words) ([9]; high dose groups): superior to the positive control group
Blood viscosity, low shear, medium shear and high shear (in words) ([9]; intravenous once per day for 5 days, compared to solvent control group): decreased as dose increased

COCCOC(=O)C1=C(C)NC(C)=C(C(=O)OC(C)C)C1c1cccc([N+](=O)[O-])c1 (centres unmarked) [nimodipine, reference compound]
Area of cerebral infarction ([4]; SD rats, positive group, 24 h after MCAO): 15.7%
